Results as given in US9676715B2, “Bis-indolic derivatives, a process for preparing the same and their uses as a drug” (UNIVERSITE JOSEPH FOURIER, priority 2011, dated 2017).
Values after ≈ are worked out from the molar mass of the structure shown. Read-outs that look alike come from different tables or passages of the source.

Legend:
[1] = tested on: S. agalactiae (group B) ATCC 12400; experiment: MIC, microdilution method (9.1); format: cell-based, Streptococcus agalactiae
Procedure, shortened: (§1)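 Each strain is grown in Mueller Hinton broth with indolic compounds at twofold increments (final 0.50-128 mg/L), starting from 5×10^5 CFU/ml. Plates incubate at 37° C. in ambient air, as set out by CLSI M07-A8.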

[2] = tested on: S. pyogenes (group A) CIP 104226; experiment: MIC, microdilution method (9.1); format: cell-based, Streptococcus pyogenes
Procedure, shortened: as §1

S. mitis CIP 103335 = experiment: MIC, microdilution method (9.1); format: cell-based, Streptococcus mitis
Procedure, shortened: as §1

S. aureus ATCC 29213 = experiment: MIC, microdilution method (9.1); format: cell-based, Staphylococcus aureus
Procedure, shortened: as §1

[3] = tested on: S. aureus ATCC 33592 (MRSA); experiment: MIC, microdilution method (9.1); format: cell-based, Staphylococcus aureus; details: read after 18 h
Procedure, shortened: as §1

[4] = tested on: S. aureus ATCC 106414 (VISA); experiment: MIC, microdilution method (9.1); format: cell-based, Staphylococcus aureus; details: read after 18 h
Procedure, shortened: as §1

[5] = tested on: S. aureus CIP 65.25 (MRSA); experiment: MIC, microdilution method (9.1); format: cell-based, Staphylococcus aureus; details: read after 18 h
Procedure, shortened: as §1

S. aureus SA-1199B = experiment: MIC, microdilution method (9.1); format: cell-based, Staphylococcus aureus
Procedure, shortened: as §1

S. aureus ATCC 9144 = experiment: MIC, microdilution method (9.1); format: cell-based, Staphylococcus aureus
Procedure, shortened: as §1

S. aureus ATCC 6538 = experiment: MIC, microdilution method (9.1); format: cell-based, Staphylococcus aureus
Procedure, shortened: as §1

S. aureus CIP 103428 = experiment: MIC, microdilution method (9.1); format: cell-based, Staphylococcus aureus
Procedure, shortened: as §1

S. aureus ATCC 25923 = experiment: MIC, microdilution method (9.1); format: cell-based, Staphylococcus aureus
Procedure, shortened: as §1

S. aureus CIP 65.6 = experiment: MIC, microdilution method (9.1); format: cell-based, Staphylococcus aureus
Procedure, shortened: as §1

S. pneumoniae ATCC 6303 = experiment: MIC, microdilution method (9.1); format: cell-based, Streptococcus pneumoniae; details: 5% CO2, 18 h
Procedure, shortened: (§2)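 Mueller Hinton broth cultures at 5×10^5 CFU/ml final were exposed to doubling concentrations of compound from 0.50 to 128 mg/L. Incubation: 37° C., ambient atmosphere. Method per CLSI M07-A8; blood supplement and CO2 reserved for fastidious organisms.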

E. faecium CIP 54.32 = experiment: MIC, microdilution method (9.1); format: cell-based, Enterococcus faecium
Procedure, shortened: as §1

E. faecalis ATCC 29212 = experiment: MIC, microdilution method (9.1); format: cell-based, Enterococcus faecalis
Procedure, shortened: as §1

[6] = tested on: S. epidermidis ATCC 12228; experiment: MIC, microdilution method (9.1); format: cell-based, Staphylococcus epidermidis
Procedure, shortened: as §1

[7] = tested on: S. epidermidis CIP 103627; experiment: MIC, microdilution method (9.1); format: cell-based, Staphylococcus epidermidis
Procedure, shortened: as §1

S. epidermidis CIP 81.55 = experiment: MIC, microdilution method (9.1); format: cell-based, Staphylococcus epidermidis
Procedure, shortened: as §1

[8] = tested on: Klebsiella pneumoniae API ATCC 35657; experiment: MIC, microdilution method (9.1); format: cell-based
Procedure, shortened: as §1

[9] = tested on: Acinetobacter baumanii ATCC 19606; experiment: MIC, microdilution method (9.1); format: cell-based
Procedure, shortened: as §1

[10] = tested on: Bacillus subtilis CIP 5262; experiment: MIC, microdilution method (9.1); format: cell-based
Procedure, shortened: as §1

[11] = tested on: Escherichia coli ATCC 25922; experiment: MIC, microdilution method (9.1); format: cell-based; details: ATCC25922, 18 h
Procedure, shortened: as §1

[12] = tested on: Serratia marcescens CIP 103551; experiment: MIC, microdilution method (9.1); format: cell-based; details: CIP103551, 18 h
Procedure, shortened: as §1

[13] = tested on: Haemophilus influenzae ATCC 49766; experiment: MIC, microdilution method (9.1); format: cell-based; details: ATCC49766; Haemophilus influenzae ATCC 49766; 10% sheep blood, 5% CO2; 18 h; read-out: MIC
Procedure, shortened: as §2

[14] = tested on: Enterobacter cloacae ATCC13047; experiment: MIC, microdilution method (9.1); format: cell-based; details: 18 h
Procedure, shortened: as §1

[15] = tested on: Pseudomonas aeruginosa CIP 5933; experiment: MIC, microdilution method (9.1); format: cell-based
Procedure, shortened: as §1

[16] = tested on: Listeria innocua CIP 80.11; experiment: MIC, microdilution method (9.1); format: cell-based
Procedure, shortened: as §1

S. pneumoniae ATCC 49619 = experiment: MIC, microdilution method (9.1); format: cell-based; details: Streptococcus pneumoniae, ATCC49619, 10% sheep blood, 5% CO2, 18 h
Procedure, shortened: as §2

[17] = tested on: 29 bacterial strains belonging to 17 different species; experiment: MIC determination, overall statements on the bacterial panel; format: cell-based; details: summary of MIC results
Method: The microdilution method recommended by the Clinical and Laboratory Standard Institute [M07-A8, Vol. 29, No. 2] was used. The activity of indolic compounds was tested against 29 bacterial strains belonging to 17 different species and 12 different genera (Staphylococcus, Streptococcus, Enterococcus, Listeria, Bacillus, Haemophilus, Escherichia, Klebsiella, Enterobacter, Serratia, Pseudomonas, and Acinetobacter). Bacterial inocula were prepared in Mueller Hinton broth (MH2, bioMérieux, Marcy L'Etoile, France), supplemented with 10% sheep blood for fastidious species (i.e., Streptococcus pneumoniae and Haemophilus influenzae). They were dispensed in 96 well microtiter plates (5×10^5 CFU/ml of final inoculum). Indolic compounds were added to the wells as to obtain two-fold serial concentrations (0.50-128 mg/L of final concentrations). Plates were incubated at 37° C. in ambient air, or at 37° C. in 5% CO2 enriched atmosphere for fastidious species. […] Drug-free cultures served as growth controls. Cultures receiving gentamicin, ciprofloxacin or cefotaxime served as positive controls.

[18] = Staphylococcus aureus, read-out: MIC

## CC(C)(C)OC(=O)NCC(NC(=O)c1cccnc1)c1c[nH]c2ccc(Br)cc12 (stereo not shown) [Compound 10, tert-Butyl (2-(5-bromo-1H-indol-3-yl)-2-(nicotinamido)ethyl) carbamate]
[1]; Streptococcus agalactiae, ATCC12400, 18 h, read-out: MIC
  MIC: 128 µg/mL (≈ 279 µM)
[2]; Streptococcus pyogenes, CIP104226, 18 h, read-out: MIC
  MIC: 128 µg/mL (≈ 279 µM)
S. mitis CIP 103335; Streptococcus mitis, CIP103335, 18 h, read-out: MIC
  MIC: > 128 µg/mL
S. aureus ATCC 29213; Staphylococcus aureus, ATCC29213, read after 18 h, read-out: MIC
  MIC: 128 µg/mL (≈ 279 µM)
[3]; [18]
  MIC: > 128 µg/mL
[4]; [18]
  MIC: > 128 µg/mL
[5]; [18]
  MIC: > 128 µg/mL
S. aureus SA-1199B; Staphylococcus aureus, SA1199B, 18 h
  MIC: 64 µg/mL (≈ 139 µM)
S. aureus ATCC 9144; Staphylococcus aureus, ATCC9144, read after 18 h, read-out: MIC
  MIC: > 128 µg/mL
S. aureus ATCC 6538; Staphylococcus aureus, ATCC6538, read after 18 h, read-out: MIC
  MIC: 64 µg/mL (≈ 139 µM)
S. aureus CIP 103428; Staphylococcus aureus, CIP103428, read after 18 h, read-out: MIC
  MIC: 64 µg/mL (≈ 139 µM)
S. aureus ATCC 25923; Staphylococcus aureus, ATCC25923, read after 18 h, read-out: MIC
  MIC: > 128 µg/mL
S. aureus CIP 65.6; Staphylococcus aureus, CIP65, read after 18 h, read-out: MIC
  MIC: > 128 µg/mL
S. pneumoniae ATCC 6303; Streptococcus pneumoniae, ATCC6303, 10% sheep blood, read-out: MIC
  MIC: 128 µg/mL (≈ 279 µM)
E. faecium CIP 54.32; Enterococcus faecium, CIP54, 18 h, read-out: MIC
  MIC: > 128 µg/mL
E. faecalis ATCC 29212; Enterococcus faecalis, ATCC29212, 18 h, read-out: MIC
  MIC: > 128 µg/mL
[6]; Staphylococcus epidermidis, ATCC12228, read after 18 h, read-out: MIC
  MIC: > 128 µg/mL
[7]; Staphylococcus epidermidis, CIP103627, read after 18 h, read-out: MIC
  MIC: > 128 µg/mL
S. epidermidis CIP 81.55; Staphylococcus epidermidis, CIP81, read after 18 h, read-out: MIC
  MIC: > 128 µg/mL
[8]; ATCC35657, 18 h, read-out: MIC
  MIC: > 128 µg/mL
[9]; Acinetobacter baumannii, ATCC19606, 18 h, read-out: MIC
  MIC: > 128 µg/mL
[10]; CIP5262, 18 h, read-out: MIC
  MIC: 128 µg/mL (≈ 279 µM)
[11]
  MIC: > 128 µg/mL
[12]
  MIC: > 128 µg/mL
[13]
  MIC: > 128 µg/mL
[14]
  MIC: > 128 µg/mL
[15]; CIP5933, 18 h, read-out: MIC
  MIC: > 128 µg/mL
[16]; CIP80, 18 h, read-out: MIC
  MIC: > 128 µg/mL
S. pneumoniae ATCC 49619
  MIC: 128 µg/mL (≈ 279 µM)
[17]
  intrinsic antibacterial activity (in words): lack of intrinsic antibacterial activity

## tert-Butyl (2-(p-bromo)benzamido-2-(5-bromo-1H-indol-3-yl)ethyl)carbamate [Compound 8a]
[1]; 18 h
  MIC: 64 µg/mL
[2]; 18 h
  MIC: >128 µg/mL
S. mitis CIP 103335; 18 h
  MIC: >128 µg/mL
S. aureus ATCC 29213; read after 18 h
  MIC: >32 µg/mL
[3]
  MIC: >32 µg/mL
[4]
  MIC: >32 µg/mL
[5]
  MIC: >32 µg/mL
S. aureus SA-1199B; S. aureus SA-1199B, read after 18 h
  MIC: >32 µg/mL
S. aureus ATCC 9144; read after 18 h
  MIC: >32 µg/mL
S. aureus ATCC 6538; read after 18 h
  MIC: >32 µg/mL
S. aureus CIP 103428; read after 18 h
  MIC: >32 µg/mL
S. aureus ATCC 25923; read after 18 h
  MIC: >128(>32) mg/L
S. aureus CIP 65.6; read after 18 h
  MIC: >32 µg/mL
S. pneumoniae ATCC 6303; 10% sheep blood
  MIC: 128 µg/mL
E. faecium CIP 54.32; 18 h
  MIC: >128 µg/mL
E. faecalis ATCC 29212; 18 h
  MIC: >128 µg/mL
[6]; read after 18 h
  MIC: >32 µg/mL
[7]; read after 18 h
  MIC: >32 µg/mL
S. epidermidis CIP 81.55; read after 18 h
  MIC: >32 µg/mL
[8]; 18 h
  MIC: 64 µg/mL
[9]; 18 h
  MIC: >128(>32) mg/L
[10]; 18 h
  MIC: >128 µg/mL
[15]; 18 h
  MIC: >128(>32) mg/L
[16]; 18 h
  MIC: >128 µg/mL
[17]
  intrinsic antibacterial activity (in words): lack of intrinsic antibacterial activity
